Each structure is given as a SMILES string.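 Exposure lasted 48 hours, with cells grown in 96-well plates and compounds tested at five concentrations. Here, GI50 denotes the concentration required for 50% inhibition of growth. TGI is the concentration that stops growth completely.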

This is an account of results in PubChem BioAssay (NCI).

Some test systems named below: SK-OV-3 ovarian; COLO 205 colon; SW-620 colon; OVCAR-5 ovarian; RXF 393 renal; TK-10 renal; SN12C renal; HCT-116 colon; SK-MEL-2 melanoma; MOLT-4 leukemia.
Experiment in all cases: NCI-60 cell line screen, 48 h

For `O=S(=O)(Nc1ccc2ccc3cccc4ccc1c2c34)c1ccccc1`, the TGI in the assay with SK-OV-3 ovarian, in the assay with COLO 205 colon, with SW-620 colon, with OVCAR-5 ovarian, in the assay on RXF 393 renal and in the assay on TK-10 renal was above 100 µM each time. Also, the TGI in the assay on SN12C renal was 65.4 µM; with HCT-116 colon, above 100 µM; with SK-MEL-2 melanoma it was above 100 µM; in the assay on MOLT-4 leukemia, above 100 µM.
Consider `CNS(=O)(=O)NN(C)S(=O)(=O)c1ccc(C)cc1`, for which the TGI with SK-OV-3 ovarian, in the assay on COLO 205 colon, in the assay with SW-620 colon, with OVCAR-5 ovarian, in the assay with RXF 393 renal and in the assay with TK-10 renal was above 100 µM each time. In addition, the TGI with SN12C renal, in the assay with HCT-116 colon, with SK-MEL-2 melanoma and with MOLT-4 leukemia was above 100 µM in each case.
With `COc1cc2c(cc1OCCCN1CCN(CCCOc3cc4c(cc3OC)C(=O)C3CCC[C@H]3C=N4)CC1)N=C[C@@H]1CCCC1C2=O` (stereo not given in full), the GI50 in the assay on SK-OV-3 ovarian was 63.5 µM; with COLO 205 colon, 9.29 µM; in the assay with SW-620 colon, 1.19 µM; with OVCAR-5 ovarian it was 4.84 µM; in the assay on RXF 393 renal, 3 µM; in the assay on TK-10 renal, 7.9 µM. The GI50 is 10.4 µM in the assay on SN12C renal, 12.1 µM with HCT-116 colon, 1.71 µM in the assay on SK-MEL-2 melanoma and 0.313 µM with MOLT-4 leukemia. The TGI with SK-OV-3 ovarian is above 100 µM; in the assay with COLO 205 colon, above 75.4 µM; in the assay on SW-620 colon it was above 35 µM; with OVCAR-5 ovarian it was above 27.2 µM; in the assay on RXF 393 renal, 17.5 µM; in the assay with TK-10 renal it was above 100 µM. Moreover, the TGI in the assay on SN12C renal is above 100 µM; in the assay on HCT-116 colon it was above 100 µM; in the assay on SK-MEL-2 melanoma it was 4.8 µM; in the assay on MOLT-4 leukemia, 2.53 µM.
Regarding `c1ccc(COc2ccc(Nc3ncnc4ccc(-c5ccco5)cc34)cc2)cc1`, the GI50 is 0.994 µM with SK-OV-3 ovarian; 7.14 µM in the assay with COLO 205 colon; 7.47 µM in the assay on SW-620 colon; 4.57 µM with OVCAR-5 ovarian; 3.4 µM with RXF 393 renal; 3.26 µM with TK-10 renal. Besides, the GI50 is 8.49 µM with SN12C renal, 4.93 µM in the assay with HCT-116 colon, 9.68 µM in the assay with SK-MEL-2 melanoma and 11.7 µM in the assay with MOLT-4 leukemia. Further, the TGI with SK-OV-3 ovarian came out at 8.16 µM; in the assay with COLO 205 colon it was 17.7 µM; with SW-620 colon, 22.7 µM; in the assay with OVCAR-5 ovarian, 14.8 µM; with RXF 393 renal, 8.61 µM; in the assay with TK-10 renal, 16.3 µM. The TGI in the assay on SN12C renal is above 25 µM; in the assay on HCT-116 colon, 12.4 µM; in the assay on SK-MEL-2 melanoma, 24.6 µM; with MOLT-4 leukemia, above 25 µM.
Take `C#CCSc1nnnn1-c1ccc(Br)c(C)c1`: the GI50 in the assay with SK-OV-3 ovarian is 30 µM; with COLO 205 colon it was 27.2 µM; with SW-620 colon, 19.1 µM; with OVCAR-5 ovarian, 69.4 µM; with RXF 393 renal, 27.3 µM; in the assay with TK-10 renal it was 35.4 µM. Further, the GI50 was 19.1 µM in the assay on SN12C renal, 29.3 µM with HCT-116 colon, 21.6 µM in the assay on SK-MEL-2 melanoma and 23.3 µM with MOLT-4 leukemia. The TGI in the assay with SK-OV-3 ovarian was above 100 µM; in the assay on COLO 205 colon it was 84.3 µM; with SW-620 colon it was 52.1 µM; in the assay with OVCAR-5 ovarian it was above 100 µM; with RXF 393 renal it was above 100 µM; with TK-10 renal, above 100 µM. The TGI is above 100 µM in the assay on SN12C renal, above 100 µM in the assay on HCT-116 colon, 57 µM in the assay with SK-MEL-2 melanoma and above 100 µM with MOLT-4 leukemia.
Regarding `COc1cc(C2c3cc4c(cc3[C@@H](OCCN)[C@H]3COC(=O)C23)OCO4)cc(OC)c1O` (stereo not given in full), the TGI was 1.48 µM with SK-OV-3 ovarian; 6.51 µM in the assay with COLO 205 colon; 2.45 µM in the assay on SW-620 colon; 3.6 µM with OVCAR-5 ovarian; 2.35 µM in the assay on RXF 393 renal; above 19.8 µM in the assay on TK-10 renal. For the same molecule, the TGI in the assay with SN12C renal is 0.562 µM; with HCT-116 colon, 4.89 µM; in the assay with SK-MEL-2 melanoma, 0.883 µM; with MOLT-4 leukemia, 0.733 µM.
As to `Cc1ccc(C)c(NC(=O)CCC(=O)CC(=O)C(C)(C)C)c1`, the TGI with SK-OV-3 ovarian, in the assay on COLO 205 colon, in the assay on SW-620 colon, in the assay with OVCAR-5 ovarian, in the assay on RXF 393 renal and in the assay on TK-10 renal was above 100 µM each time. Besides, the TGI in the assay on SN12C renal, in the assay with HCT-116 colon, in the assay with SK-MEL-2 melanoma and in the assay with MOLT-4 leukemia was above 100 µM throughout.
